Measurements reported in ChEMBL document CHEMBL1201862, “PubChem BioAssay data set” (2004).
Active and inactive are the calls of the source.

Assays:
CHO-K1 = assay: (§1) Counterscreen for antagonists of the orexin 1 receptor (OX1R; HCRTR1): Homogeneous time resolved fluorescence (HTRF)-based cell-based dose response assay to identify antagonists of the parental CHO-K1 cell line. [Related pubchem assays (depositor defined):AID434989, AID435008, AID463079, AID485270, AID492963, AID492964, AID492965, AID493232, AID504699, AID504701]; type: functional; details: Cricetulus griseus
[1] = as §1, with “Fluorescence-based” for “Homogeneous time resolved fluorescence (HTRF)-based”, “cell-based high throughput” for “cell-based”, “CHO” for “CHO-K1”; type: functional
Orexin receptor type 2 [2] = molecular target: T1, Orexin receptor type 2 (Homo sapiens, UniProt O43614); assay: Counterscreen assay for antagonists of the orexin 1 receptor (OX1R; HCRTR1): Fluorescence-based cell-based dose response assay for antagonists of the orexin 2 receptor (OX2R; HCRTR2), run by assay provider.; type: functional
T1 sequence (O43614 whole entry): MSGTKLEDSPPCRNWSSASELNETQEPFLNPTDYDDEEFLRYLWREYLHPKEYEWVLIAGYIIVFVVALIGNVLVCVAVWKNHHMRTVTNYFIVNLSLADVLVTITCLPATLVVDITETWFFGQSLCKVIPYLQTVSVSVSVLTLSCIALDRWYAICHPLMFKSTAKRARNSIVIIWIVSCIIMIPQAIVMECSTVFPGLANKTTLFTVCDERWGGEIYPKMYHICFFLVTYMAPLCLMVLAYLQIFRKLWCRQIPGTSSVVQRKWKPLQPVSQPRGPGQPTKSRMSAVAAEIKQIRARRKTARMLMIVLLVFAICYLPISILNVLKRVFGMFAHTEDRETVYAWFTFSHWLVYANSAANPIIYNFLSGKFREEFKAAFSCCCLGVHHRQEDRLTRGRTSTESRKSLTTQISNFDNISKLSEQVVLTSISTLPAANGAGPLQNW

[3] = molecular target: T2, Orexin/Hypocretin receptor type 1 (Homo sapiens, UniProt O43613); assay: Homogeneous Time Resolved Fluorescence (HTRF)-based cell-based high throughput dose response assay for antagonists of the orexin 1 receptor (OX1R; HCRTR1). [Related pubchem assays (depositor defined):AID434989, AID435008, AID463079, AID485270, AID492963, AID492964, AID492965, AID493232, AID504717, AID504718]; type: functional
T2 sequence (O43613 whole entry): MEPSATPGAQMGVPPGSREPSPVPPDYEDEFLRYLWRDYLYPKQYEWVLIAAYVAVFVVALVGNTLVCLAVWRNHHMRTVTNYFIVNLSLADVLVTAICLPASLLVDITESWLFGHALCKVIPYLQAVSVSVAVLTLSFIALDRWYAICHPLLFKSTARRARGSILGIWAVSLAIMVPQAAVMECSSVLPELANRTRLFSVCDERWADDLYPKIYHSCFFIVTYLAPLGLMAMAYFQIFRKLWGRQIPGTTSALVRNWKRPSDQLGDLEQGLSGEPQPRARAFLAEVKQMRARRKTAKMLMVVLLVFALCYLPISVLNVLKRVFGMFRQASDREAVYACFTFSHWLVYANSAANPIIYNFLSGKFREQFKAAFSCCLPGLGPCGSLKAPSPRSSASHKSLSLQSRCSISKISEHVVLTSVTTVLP

Orexin receptor type 2 [4] = molecular target: T1, Orexin receptor type 2; assay: Counterscreen assay for antagonists of the orexin 1 receptor (OX1R; HCRTR1): Homogeneous Time Resolved Fluorescence (HTRF)-based cell-based dose response assay for antagonists of the orexin 2 receptor (OX2R; HCRTR2), run by assay provider.; type: functional
[5] = molecular target: T2, Orexin/Hypocretin receptor type 1; assay: Fluorescence-based cell-based high throughput dose response assay for antagonists of the orexin 1 receptor (OX1R; HCRTR1). [Related pubchem assays (depositor defined):AID434989, AID435008, AID463079, AID485270, AID492963, AID492964, AID492965, AID493232, AID504717, AID504718]; type: functional
CAAX prenyl protease 2 = molecular target: T3, CAAX prenyl protease 2 (Saccharomyces cerevisiae S288c, UniProt Q03530); type: biochemical
T3 sequence (Q03530 whole entry): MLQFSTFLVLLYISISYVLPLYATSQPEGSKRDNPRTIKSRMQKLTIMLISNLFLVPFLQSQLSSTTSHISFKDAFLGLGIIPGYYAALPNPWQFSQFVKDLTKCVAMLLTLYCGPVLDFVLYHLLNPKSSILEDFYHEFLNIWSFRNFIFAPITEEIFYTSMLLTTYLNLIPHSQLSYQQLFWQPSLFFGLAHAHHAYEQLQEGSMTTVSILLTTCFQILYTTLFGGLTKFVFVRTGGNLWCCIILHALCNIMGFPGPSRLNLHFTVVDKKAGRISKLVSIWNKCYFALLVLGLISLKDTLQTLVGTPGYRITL

[6] = mammalian cell cytotoxicity, dose response, cytotoxicity control, plate reader, cherry-pick samples (AID 504397); type: functional, cell-based
Mu-type opioid receptor [7] = molecular target: T4, Mu-type opioid receptor (Homo sapiens, UniProt P35372); assay: MOR antagonists, SAR follow-up, image-based (AID 2420); type: functional;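 note: compounds added before stimulation of receptor with agonist DAMGO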
T4 sequence (P35372 whole entry): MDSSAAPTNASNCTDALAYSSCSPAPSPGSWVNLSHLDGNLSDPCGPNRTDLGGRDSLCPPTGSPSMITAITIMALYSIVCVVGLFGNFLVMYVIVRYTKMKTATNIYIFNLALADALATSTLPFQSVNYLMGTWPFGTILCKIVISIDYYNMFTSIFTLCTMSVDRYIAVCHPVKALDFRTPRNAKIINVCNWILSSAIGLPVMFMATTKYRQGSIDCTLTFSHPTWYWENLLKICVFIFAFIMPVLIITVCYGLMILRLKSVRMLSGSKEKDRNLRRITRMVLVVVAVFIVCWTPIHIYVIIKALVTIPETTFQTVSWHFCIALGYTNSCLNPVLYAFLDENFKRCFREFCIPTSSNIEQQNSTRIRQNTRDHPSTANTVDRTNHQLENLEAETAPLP

[8] = molecular target: T5, Delta-type opioid receptor (Homo sapiens, UniProt P41143); assay: HTS Image-Based Screen for Antagonists of the DOR Receptor. [Related pubchem assays (depositor defined):AID1777, AID1785, AID1786, AID2133]; type: functional
T5 sequence (P41143 whole entry): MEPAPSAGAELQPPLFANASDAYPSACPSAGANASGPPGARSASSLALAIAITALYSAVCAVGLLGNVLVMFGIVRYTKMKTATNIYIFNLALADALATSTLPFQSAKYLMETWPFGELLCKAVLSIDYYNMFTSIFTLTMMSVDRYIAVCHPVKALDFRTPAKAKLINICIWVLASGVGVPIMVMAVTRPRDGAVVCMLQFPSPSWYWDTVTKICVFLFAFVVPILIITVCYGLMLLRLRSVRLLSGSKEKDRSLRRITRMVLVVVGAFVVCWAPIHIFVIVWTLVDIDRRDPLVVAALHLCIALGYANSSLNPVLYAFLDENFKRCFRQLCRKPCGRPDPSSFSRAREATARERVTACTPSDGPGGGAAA

[9] = molecular target: T5, Delta-type opioid receptor; assay: DOR antagonists, SAR follow-up, image-based (AID 2357); type: functional
[10] = molecular target: T5, Delta-type opioid receptor; assay: DOR agonists, SAR follow-up, image-based (AID 2370); type: functional
Beta-galactosidase = Beta-galactosidase (Escherichia coli, UniProt Q8VNN2); type: functional
Beta-galactosidase, sequence (Q8VNN2 whole entry): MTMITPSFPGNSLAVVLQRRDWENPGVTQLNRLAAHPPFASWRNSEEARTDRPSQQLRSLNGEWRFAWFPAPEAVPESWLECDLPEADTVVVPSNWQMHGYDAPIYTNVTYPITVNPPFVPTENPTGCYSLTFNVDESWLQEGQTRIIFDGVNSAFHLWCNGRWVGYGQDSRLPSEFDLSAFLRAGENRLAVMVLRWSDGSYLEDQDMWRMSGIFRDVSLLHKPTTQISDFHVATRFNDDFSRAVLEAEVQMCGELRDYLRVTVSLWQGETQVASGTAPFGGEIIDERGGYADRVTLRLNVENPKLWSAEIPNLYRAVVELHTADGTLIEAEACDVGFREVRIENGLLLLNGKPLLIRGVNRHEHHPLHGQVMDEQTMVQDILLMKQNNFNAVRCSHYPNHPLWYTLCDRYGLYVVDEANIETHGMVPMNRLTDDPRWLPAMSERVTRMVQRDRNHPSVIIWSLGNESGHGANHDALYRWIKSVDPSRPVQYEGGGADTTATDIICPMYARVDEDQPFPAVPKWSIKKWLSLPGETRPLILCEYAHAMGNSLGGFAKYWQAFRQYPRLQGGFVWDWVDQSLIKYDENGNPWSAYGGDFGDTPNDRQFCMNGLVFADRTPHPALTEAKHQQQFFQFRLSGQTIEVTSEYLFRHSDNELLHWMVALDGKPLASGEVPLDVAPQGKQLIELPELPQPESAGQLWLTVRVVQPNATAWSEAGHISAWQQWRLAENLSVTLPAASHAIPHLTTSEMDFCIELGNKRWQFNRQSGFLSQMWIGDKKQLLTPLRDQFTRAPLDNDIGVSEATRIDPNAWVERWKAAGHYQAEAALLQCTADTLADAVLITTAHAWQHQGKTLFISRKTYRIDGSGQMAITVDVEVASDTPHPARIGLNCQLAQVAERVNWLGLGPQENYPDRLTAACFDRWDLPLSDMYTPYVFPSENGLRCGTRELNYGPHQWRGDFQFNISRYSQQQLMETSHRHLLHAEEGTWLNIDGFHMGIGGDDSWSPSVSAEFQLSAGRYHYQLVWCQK

[11] = molecular target: T5, Delta-type opioid receptor; assay: HTS Image-Based Screen for Agonists of the DOR Receptor. [Related pubchem assays (depositor defined):AID1777, AID1786, AID2133]; type: functional
Mu-type opioid receptor [12] = molecular target: T4, Mu-type opioid receptor; assay: SAR Analysis of Antagonists of the MOR Receptor using an Image-Based Assay - Set 3. [Related pubchem assays (depositor defined):AID1777, AID1785, AID1786, AID1966, AID2133, AID2136, AID2284, AID2285, AID2420]; type: functional
Mu-type opioid receptor [13] = molecular target: T4, Mu-type opioid receptor; assay: HTS Image-Based Screen for Agonists of the MOR Receptor. [Related pubchem assays (depositor defined):AID1777, AID1785, AID1786, AID2133]; type: functional
Mu-type opioid receptor [14] = molecular target: T4, Mu-type opioid receptor; assay: MOR agonists by imaging, SAR follow-up, image-based (AID 2352); type: functional
[15] = molecular target: T5, Delta-type opioid receptor; assay: SAR Analysis of Antagonists of the DOR Receptor using an Image-Based Assay - Set 3. [Related pubchem assays (depositor defined):AID1777, AID1785]; type: functional
[16] = molecular target: T6, Runt-related transcription factor 1/Core-binding factor subunit beta (Homo sapiens, UniProt Q01196+Q13951); assay: inhibitors of RUNX1 Runt–CBFb-SMMHC binding, biochemical, TR-FRET (AID 1438); type: protein assay
T6 sequence (Q01196 whole entry): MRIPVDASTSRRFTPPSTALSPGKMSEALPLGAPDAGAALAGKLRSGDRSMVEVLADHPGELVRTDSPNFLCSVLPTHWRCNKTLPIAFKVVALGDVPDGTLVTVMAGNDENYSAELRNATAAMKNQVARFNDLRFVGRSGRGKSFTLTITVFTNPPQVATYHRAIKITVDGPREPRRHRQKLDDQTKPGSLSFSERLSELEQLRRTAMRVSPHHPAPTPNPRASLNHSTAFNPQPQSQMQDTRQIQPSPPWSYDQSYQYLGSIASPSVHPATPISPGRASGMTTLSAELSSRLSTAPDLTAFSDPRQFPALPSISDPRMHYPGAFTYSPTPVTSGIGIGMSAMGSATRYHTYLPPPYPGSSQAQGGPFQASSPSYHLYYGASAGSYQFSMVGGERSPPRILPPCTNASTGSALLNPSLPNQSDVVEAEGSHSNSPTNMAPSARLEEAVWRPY
T6 sequence (Q13951 whole entry): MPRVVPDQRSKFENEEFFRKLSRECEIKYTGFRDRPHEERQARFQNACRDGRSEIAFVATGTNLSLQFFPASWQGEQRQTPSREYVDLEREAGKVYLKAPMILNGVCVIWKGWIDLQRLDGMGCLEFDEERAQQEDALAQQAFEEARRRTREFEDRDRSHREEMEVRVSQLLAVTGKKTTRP

[17] = NIH-3T3 fibroblast cytotoxicity, dose response, cytotoxicity control, cell-based, fluorescence, Alamar Blue, secondary assay (AID 2327); type: functional;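 note: NIH-3T3 mouse fibroblasts cultured with fluconazole at 8 µg/mL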
[18] = molecular target: T6, Runt-related transcription factor 1/Core-binding factor subunit beta; assay: inhibitors of RUNX1 Runt–CBFb-SMMHC binding, primary screen, biochemical, FRET, Cerulean-Runt, Venus-CBFb-SMMHC, uHTS (AID 1434); type: protein assay;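 note: partner is the CBFb-SMMHC leukemia fusion protein rather than wild-type CBFb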

With `CSc1cccc(N2CC(C(=O)NCCN3C(=O)S/C(=C\c4cccnc4)C3=O)CC2=O)c1` (stereo unspecified) the IC50 (CHO-K1) was 10.5 µM (inactive), the IC50 [1] was > 49.8 µM (inactive) and the IC50 (Orexin receptor type 2 [2]) was 20.6 µM (inactive). The IC50 [3] was 0.354 µM (active), the IC50 (Orexin receptor type 2 [4]) was > 50 µM (inactive) and the IC50 [5] was 3.1 µM (active).

For `O=C(c1cn(-c2ccccc2)nc1-c1cccs1)N1CCN(c2ccccn2)CC1`, the AC50 (CAAX prenyl protease 2) was 3.87 µM (active) and the AC50 [6] was > 350 µM (inactive).

For `Cc1ccc(S(=O)(=O)NCc2ccc(C(=O)NCCN(Cc3ccccc3)C(C)C)cc2)cc1`, the IC50 (Mu-type opioid receptor [7]) was > 32 µM (inactive), the IC50 [8] was > 32 µM (inactive) and the IC50 [9] was > 32 µM (inactive). For the same molecule, the EC50 [10] was > 32 µM (inactive), the EC50 (Beta-galactosidase) was > 31.5 µM (inactive) and the EC50 [11] was > 32 µM (inactive). The IC50 (Mu-type opioid receptor [12]) was 14 µM (inactive), the EC50 (Mu-type opioid receptor [13]) was > 32 µM (inactive) and the EC50 (Mu-type opioid receptor [14]) was > 32 µM (inactive). For the same molecule, the IC50 [15] was > 32 µM (inactive).

In the case of `O=C(CN1CCN(c2ccc(O)cc2)CC1)NC(c1ccccc1)c1ccccc1`, the IC50 [16] is reported as > 100 µM (inactive), the EC50 [17] is reported as 28.5 µM (active) and the IC50 [18] is reported as > 100 µM (inactive).
